For one assay, the target named is αvβ1 (Homo sapiens, UniProt P05556+P06756). In words: Solid Phase Integrin αvβ1 Assay. The assay is classed as binding. In outline:
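Compound competes for αvβ1 binding to immobilized TGFb1-LAP (1 µg/mL coat) in Mn2+ (1 mM MnCl2), 2% BSA binding buffer over 90 min at room temperature, integrin added at 0.2 µg/mL. Read-out: streptavidin-HRP/TMB; IC50 from Levenberg-Marquardt four-parameter fit.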

A further assay deals with αvβ6 (Homo sapiens, UniProt P06756+P18564). In words: Solid Phase Integrin αvβ6 Assay. The assay is classed as binding. In outline:
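Inhibition of αvβ6 binding to immobilized recombinant TGFb1-LAP (1 μg/mL coating), 1 h at room temperature with 1 mM MnCl2 in BSA/TBST buffer, integrin diluted to 0.2 μg/mL before addition. Streptavidin-HRP/TMB read-out; four-parameter logistic fitting gave IC50.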

Some results are limits rather than exact numbers.

As usually defined, the IC50 is the midpoint of a concentration-inhibition curve. Read a high IC50 as weaker potency in that assay.

Chain of αvβ1 (P06756 31-992 limits assumed): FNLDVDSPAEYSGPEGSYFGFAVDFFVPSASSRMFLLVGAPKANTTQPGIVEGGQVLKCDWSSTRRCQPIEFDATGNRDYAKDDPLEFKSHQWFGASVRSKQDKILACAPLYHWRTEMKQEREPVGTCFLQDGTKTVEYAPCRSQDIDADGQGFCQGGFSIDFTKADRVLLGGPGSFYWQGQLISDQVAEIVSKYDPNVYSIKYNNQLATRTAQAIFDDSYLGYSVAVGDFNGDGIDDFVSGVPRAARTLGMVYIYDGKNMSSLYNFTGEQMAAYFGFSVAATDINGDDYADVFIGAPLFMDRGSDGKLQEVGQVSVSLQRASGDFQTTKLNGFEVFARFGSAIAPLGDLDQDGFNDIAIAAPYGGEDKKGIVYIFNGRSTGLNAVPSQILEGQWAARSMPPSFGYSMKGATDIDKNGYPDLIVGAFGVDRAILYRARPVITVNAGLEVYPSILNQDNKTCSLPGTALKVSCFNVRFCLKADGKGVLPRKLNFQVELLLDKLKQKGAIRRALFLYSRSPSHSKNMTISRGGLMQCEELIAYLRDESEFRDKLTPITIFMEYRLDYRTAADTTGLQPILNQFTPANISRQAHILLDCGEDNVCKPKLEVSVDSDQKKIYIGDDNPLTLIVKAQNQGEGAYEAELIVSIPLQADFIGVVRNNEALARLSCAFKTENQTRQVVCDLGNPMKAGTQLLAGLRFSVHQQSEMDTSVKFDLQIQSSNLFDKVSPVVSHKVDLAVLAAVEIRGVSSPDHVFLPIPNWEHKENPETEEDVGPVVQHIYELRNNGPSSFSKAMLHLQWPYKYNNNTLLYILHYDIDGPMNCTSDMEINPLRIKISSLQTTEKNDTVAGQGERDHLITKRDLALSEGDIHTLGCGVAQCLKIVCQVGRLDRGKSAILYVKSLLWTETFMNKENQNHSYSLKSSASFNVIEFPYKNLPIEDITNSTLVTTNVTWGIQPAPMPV
Chain of αvβ1 (P05556 21-728 limits assumed): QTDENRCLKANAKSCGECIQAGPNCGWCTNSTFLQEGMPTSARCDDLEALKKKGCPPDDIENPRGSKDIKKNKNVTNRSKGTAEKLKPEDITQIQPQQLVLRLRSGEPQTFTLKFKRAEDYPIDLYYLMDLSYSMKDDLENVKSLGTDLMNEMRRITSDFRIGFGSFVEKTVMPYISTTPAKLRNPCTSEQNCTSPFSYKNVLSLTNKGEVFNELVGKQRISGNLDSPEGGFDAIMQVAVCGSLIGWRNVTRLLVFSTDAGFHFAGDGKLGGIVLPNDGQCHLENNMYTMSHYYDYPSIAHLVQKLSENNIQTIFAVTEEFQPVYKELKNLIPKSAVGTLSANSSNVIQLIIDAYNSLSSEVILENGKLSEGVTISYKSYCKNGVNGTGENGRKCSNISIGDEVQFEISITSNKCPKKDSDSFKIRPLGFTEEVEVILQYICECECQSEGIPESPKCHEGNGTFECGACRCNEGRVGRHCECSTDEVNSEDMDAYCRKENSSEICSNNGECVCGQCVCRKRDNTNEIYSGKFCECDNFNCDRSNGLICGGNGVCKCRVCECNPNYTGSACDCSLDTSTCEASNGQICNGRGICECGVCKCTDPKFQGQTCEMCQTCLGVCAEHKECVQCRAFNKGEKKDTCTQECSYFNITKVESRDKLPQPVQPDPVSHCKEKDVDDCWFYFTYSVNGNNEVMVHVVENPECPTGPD
Chain of αvβ6 (P06756 31-992 limits assumed): as the sequence (P06756 31-992 limits assumed) above
Chain of αvβ6 (P18564 22-707 limits assumed): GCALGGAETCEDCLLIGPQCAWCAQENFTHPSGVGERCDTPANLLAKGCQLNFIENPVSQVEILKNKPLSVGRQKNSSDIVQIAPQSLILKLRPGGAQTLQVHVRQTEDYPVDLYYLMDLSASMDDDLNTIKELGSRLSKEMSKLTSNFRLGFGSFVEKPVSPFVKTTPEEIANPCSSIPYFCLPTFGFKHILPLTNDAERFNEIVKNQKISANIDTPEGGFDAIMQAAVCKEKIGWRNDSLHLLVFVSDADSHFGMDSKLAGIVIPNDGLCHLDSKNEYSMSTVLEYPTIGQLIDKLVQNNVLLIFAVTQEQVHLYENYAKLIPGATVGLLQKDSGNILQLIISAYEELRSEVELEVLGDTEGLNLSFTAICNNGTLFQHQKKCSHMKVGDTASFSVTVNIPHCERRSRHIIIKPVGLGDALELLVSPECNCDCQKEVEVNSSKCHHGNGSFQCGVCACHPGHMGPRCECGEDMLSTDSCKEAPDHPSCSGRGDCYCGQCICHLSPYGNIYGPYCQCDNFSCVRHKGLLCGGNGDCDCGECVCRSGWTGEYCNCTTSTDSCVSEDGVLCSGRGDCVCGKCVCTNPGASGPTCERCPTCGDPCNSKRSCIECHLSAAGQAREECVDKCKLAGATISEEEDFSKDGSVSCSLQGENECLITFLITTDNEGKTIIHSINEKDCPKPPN

For `O=C(O)C[C@@H](CC[C@@H]1CCCN(CCCc2ccc3c(n2)NCCC3)C1)c1ccccc1` [Compound 298-A, 3-phenyl-5-((R)-1-(3-(5,6,7,8-tetrahydro-1,8-naphthyridin-2-yl)propyl)piperidin-3-yl)pentanoi c acid], the IC50 was < 100 nM on αvβ1 and 100 to 1000 nM at αvβ6.
Consider `O=C(O)C[C@H](CC[C@@H]1CCCN(CCCc2ccc3c(n2)NCCC3)C1)c1ccccc1` [Compound 298-B, 3-phenyl-5-((R)-1-(3-(5,6,7,8-tetrahydro-1,8-naphthyridin-2-yl)propyl)piperidin-3-yl)pentanoi c acid], for which the IC50 at αvβ1 and against αvβ6 was < 100 nM each time.
For `O=C(O)C[C@H](C(=O)N[C@@H]1CCCN(CCCc2ccc3c(n2)NCCC3)C1)c1ccccc1` [Compound 299, (S)-4-oxo-3-phenyl-4-(((R)-1-(3-(5,6,7,8-tetrahydro-1,8-naphthyridin-2-yl)propyl)piperidin-3-yl)amino)butanoic acid], the 50% inhibitory concentration (IC50) on αvβ1 and against αvβ6 was > 1000 nM throughout.
Consider `O=C(NC1([C@H](C(=O)O)c2cccc(-c3ccccc3)c2)CC1)[C@@H]1CCCN(CCCc2ccc3c(n2)NCCC3)C1` [Compound 301-A, 2-([1,1′-biphenyl]-3-yl)-2-(1-((R)-1-(3-(5,6,7,8-tetrahydro-1,8-naphthyridin-2-yl)propyl)piperidine-3-carboxamido)cyclopropyl)acetic acid], for which the IC50 at αvβ1 and against αvβ6 was > 1000 nM in each case.
In the case of `O=C(NC1([C@@H](C(=O)O)c2cccc(-c3ccccc3)c2)CC1)[C@@H]1CCCN(CCCc2ccc3c(n2)NCCC3)C1` [Compound 301-B, 2-([1,1′-biphenyl]-3-yl)-2-(1-((R)-1-(3-(5,6,7,8-tetrahydro-1,8-naphthyridin-2-yl)propyl)piperidine-3-carboxamido)cyclopropyl)acetic acid], the IC50 against αvβ1 and against αvβ6 was > 1000 nM in each case.
As to `O=C(NC[C@@H](C(=O)O)c1cccc(Br)c1)[C@@H]1CCCN(CCCc2ccc3c(n2)NCCC3)C1` [Compound 302], the 50% inhibitory concentration (IC50) against αvβ1 and on αvβ6 was < 100 nM in each case.
Consider `O=C(NC[C@H](C(=O)O)c1cccc(Br)c1)[C@@H]1CCCN(CCCc2ccc3c(n2)NCCC3)C1` [Compound 303], for which the half-maximal inhibitory concentration (IC50) against αvβ1 and at αvβ6 was < 100 nM in each case.
As to `O=C(NC[C@H](NC(=O)[C@@H]1CC2CCC1CC2)C(=O)O)[C@@H]1CCCN(CCCc2ccc3c(n2)NCCC3)C1` [Compound 304], the IC50 against αvβ1 and at αvβ6 was < 100 nM each time.
As for `O=C(NC[C@H](NC(=O)[C@H]1CC2CCC1CC2)C(=O)O)[C@@H]1CCCN(CCCc2ccc3c(n2)NCCC3)C1` [Compound 305], the IC50 against αvβ1 and on αvβ6 was < 100 nM in each case.
`O=C(NC[C@H](C(=O)O)c1cc(F)cc(-c2ccccc2)c1)[C@@H]1CCCN(CCCc2ccc3c(n2)NCCC3)C1` [Compound 306]: the IC50 against αvβ1 and against αvβ6 was 100 to 1000 nM each time.
Take `O=C(NC[C@@H](C(=O)O)c1cc(F)cc(-c2ccccc2)c1)[C@@H]1CCCN(CCCc2ccc3c(n2)NCCC3)C1` [Compound 307]: the IC50 at αvβ1 and on αvβ6 was < 100 nM in each case.
As to `O=C(NC[C@@H](C(=O)O)c1ccc(F)c(-c2ccccc2)c1)[C@@H]1CCCN(CCCc2ccc3c(n2)NCCC3)C1` [Compound 308], the IC50 on αvβ1 and against αvβ6 was 100 to 1000 nM each time.
Turning to `O=C(NC[C@H](C(=O)O)c1ccc(F)c(-c2ccccc2)c1)[C@@H]1CCCN(CCCc2ccc3c(n2)NCCC3)C1` [Compound 309], the IC50 against αvβ1 and against αvβ6 was < 100 nM in each case.
For `O=C(N[C@@H](CNC(=O)[C@@H]1CCCN(CCCc2ccc3c(n2)NCCC3)C1)C(=O)O)C1CCOCC1` [Compound 311], the IC50 on αvβ1 and at αvβ6 was < 100 nM throughout.
As to `O=C(N[C@@H](CNC(=O)[C@@H]1CCCN(CCCc2ccc3c(n2)NCCC3)C1)C(=O)O)c1ccncc1` [Compound 312], the IC50 on αvβ1 and against αvβ6 was < 100 nM in each case.
`O=C(N[C@@H](CNC(=O)[C@@H]1CCCN(CCCc2ccc3c(n2)NCCC3)C1)C(=O)O)c1nnc(C2CC2)o1` [Compound 313]: the IC50 on αvβ1 and against αvβ6 was < 100 nM in each case.
Regarding `O=C(NC[C@@H](C(=O)O)c1cccc2c1cnn2CC1CC1)[C@@H]1CCCN(CCCc2ccc3c(n2)NCCC3)C1` [Compound 314], the IC50 against αvβ1 and at αvβ6 was 100 to 1000 nM throughout.
For `O=C(NC[C@H](C(=O)O)c1cccc2c1cnn2CC1CC1)[C@@H]1CCCN(CCCc2ccc3c(n2)NCCC3)C1` [Compound 315], the IC50 at αvβ1 and against αvβ6 was < 100 nM throughout.
In the case of `O=C(NC[C@@H](C(=O)O)c1cccc2nn(CC3CC3)cc12)[C@@H]1CCCN(CCCc2ccc3c(n2)NCCC3)C1` [Compound 316], the figures for the IC50 against αvβ1 and on αvβ6 were 100 to 1000 nM and > 1000 nM, respectively.
The like results for `O=C(NC[C@H](C(=O)O)c1cccc2nn(CC3CC3)cc12)[C@@H]1CCCN(CCCc2ccc3c(n2)NCCC3)C1` [Compound 317] were, in that order, < 100 nM and < 100 nM.
Consider `O=C(NC[C@H](C(=O)O)c1cccc2n[nH]cc12)[C@@H]1CCCN(CCCc2ccc3c(n2)NCCC3)C1` [Compound 318], for which the IC50 against αvβ1 is 100 to 1000 nM; at αvβ6, > 1000 nM.
Turning to `O=C(NC[C@@H](C(=O)O)c1cccc2n[nH]cc12)[C@@H]1CCCN(CCCc2ccc3c(n2)NCCC3)C1` [Compound 319], the IC50 against αvβ1 and on αvβ6 was < 100 nM in each case.
Take `O=C(NC[C@@H](C(=O)O)c1cccc2cnn([C@H]3CCOC3)c12)[C@@H]1CCCN(CCCc2ccc3c(n2)NCCC3)C1` [Compound 320]: the IC50 against αvβ1 and against αvβ6 was > 1000 nM in each case.
Consider `O=C(NC[C@H](C(=O)O)c1cccc2cnn([C@H]3CCOC3)c12)[C@@H]1CCCN(CCCc2ccc3c(n2)NCCC3)C1` [Compound 321], for which the IC50 at αvβ1 is < 100 nM; against αvβ6, 100 to 1000 nM.
With `O=C(NC[C@@H](C(=O)O)c1cccc2cnn([C@@H]3CCOC3)c12)[C@@H]1CCCN(CCCc2ccc3c(n2)NCCC3)C1` [Compound 322], the IC50 at αvβ1 is 100 to 1000 nM; against αvβ6, > 1000 nM.
In the case of `O=C(NC[C@H](C(=O)O)c1cccc2cnn([C@@H]3CCOC3)c12)[C@@H]1CCCN(CCCc2ccc3c(n2)NCCC3)C1` [Compound 323], the IC50 against αvβ1 and at αvβ6 was < 100 nM each time.
Take `O=C(NC[C@@H](C(=O)O)c1cnc2[nH]ccc2c1)[C@@H]1CCCN(CCCc2ccc3c(n2)NCCC3)C1` [Compound 324]: the IC50 against αvβ1 is < 100 nM; at αvβ6, > 1000 nM.
The like results for `O=C(NC[C@H](C(=O)O)c1cnc2[nH]ccc2c1)[C@@H]1CCCN(CCCc2ccc3c(n2)NCCC3)C1` [Compound 325] were, in that order, < 100 nM and < 100 nM.
Turning to `O=C(NC[C@@H](C(=O)O)c1cnc2c(ccn2CC2CC2)c1)[C@@H]1CCCN(CCCc2ccc3c(n2)NCCC3)C1` [Compound 326], the IC50 at αvβ1 and on αvβ6 was < 100 nM in each case.
As for `O=C(NC[C@H](C(=O)O)c1cnc2c(ccn2CC2CC2)c1)[C@@H]1CCCN(CCCc2ccc3c(n2)NCCC3)C1` [Compound 327], the IC50 at αvβ1 and against αvβ6 was < 100 nM in each case.
As for `O=C(O)C[C@@H](NC(=O)[C@@H]1CCCN(CCCc2ccc3c(n2)NCCC3)C1)c1ccc2c(c1)C1(CC2)CC1` [Compound 328], the IC50 against αvβ1 and against αvβ6 was 100 to 1000 nM throughout.
For the molecule `O=C(O)[C@H](CCO[C@@H]1CCCN(CCCc2ccc3c(n2)NCCC3)C1)c1cccc(-c2ccccc2)c1` [Compound 329], the IC50 at αvβ1 and against αvβ6 was > 1000 nM throughout.
For `O=C(O)[C@@H](CCO[C@@H]1CCCN(CCCc2ccc3c(n2)NCCC3)C1)c1cccc(-c2ccccc2)c1` [Compound 330], the IC50 against αvβ1 was > 1000 nM; against αvβ6 it was < 100 nM.
`O=C(O)[C@@H](CCO[C@@H]1CCCN(CCCc2ccc3c(n2)NCCC3)C1)NC(=O)C12CCC(CC1)CC2` [Compound 331]: the IC50 against αvβ1 and against αvβ6 was < 100 nM throughout.
As to `O=C(O)[C@@H](CCO[C@@H]1CCCN(CCCc2ccc3c(n2)NCCC3)C1)Nc1ncnc2ccccc12` [Compound 332], the results for the IC50 on αvβ1 and at αvβ6 were > 1000 nM and 100 to 1000 nM, respectively.
Taken in the same sequence, the figures for `O=C(O)[C@H](CCO[C@@H]1CCCN(CCCc2ccc3c(n2)NCCC3)C1)NC(=O)C12CCC(CC1)CC2` [Compound 333] were 100 to 1000 nM and 100 to 1000 nM.
The like results for `O=C(O)[C@H](CCO[C@@H]1CCCN(CCCc2ccc3c(n2)NCCC3)C1)Nc1ncnc2ccccc12` [Compound 334] were, in that order, < 100 nM and < 100 nM.
For `O=C(O)CC(CO[C@@H]1CCCN(CCc2ccc3c(n2)NCCC3)C1)c1ccccc1` (some centres unmarked) [Compound 335], the IC50 against αvβ1 and at αvβ6 was 100 to 1000 nM in each case.
In the case of `O=C(O)CC(CO[C@@H]1CCCN(Cc2ccc3c(n2)NCCC3)C1)c1ccccc1` (some centres unmarked) [Compound 336], the figures for the IC50 on αvβ1 and on αvβ6 were > 1000 nM and 100 to 1000 nM, respectively.
The like results for `O=C(O)CC(CO[C@H]1CCCN(CCCc2ccc3c(n2)NCCC3)C1)c1ccccc1` (some centres unmarked) [Compound 337] were, in that order, 100 to 1000 nM and 100 to 1000 nM.
With `O=C(N[C@@H](CNC(=O)[C@@H]1CCCN(CCCc2ccc3c(n2)NCCC3)C1)C(=O)O)C1CC2CCC1CC2` (some centres unmarked) [Compound 338], the IC50 against αvβ1 and at αvβ6 was < 100 nM in each case.
With `O=C(O)CC(NC(=O)[C@@H]1CCCN(CCCc2ccc3c(n2)NCCC3)C1)c1cccc2ccccc12` (some centres unmarked) [Compound 339], the IC50 against αvβ1 and at αvβ6 was < 100 nM each time.
`O=C(NC[C@@H](C(=O)O)c1ccccc1-c1ccccc1)[C@@H]1CCCN(CCCc2ccc3c(n2)NCCC3)C1` [Compound 340]: the IC50 on αvβ1 and at αvβ6 was 100 to 1000 nM each time.

These data come from patent US20240208968A1, “ALPHA V BETA 6 AND ALPHA V BETA 1 INTEGRIN INHIBITORS AND USES THEREOF” (DiCE Molecules SV, Inc., priority 2021, published 2024).
